Holding throughout (type): in vivo, human
The test system of data set [1] is subjects with dry eye disease. In words: CAE clinical study, initial cohort, Day 1 dry eye assessments. As to conditions: N = 12; for Schirmer's Test, Change From Baseline: Day 1, after a single dose, vehicle +1.3, P-Value 0.30; for OD4S: Dryness (0-5), Change From Baseline / OD4S: Grittiness (0-5), Change From Baseline: vehicle +0.1, P-Value 0.006; for OD4S: Discomfort (0-5), Change From Baseline / VAS Dryness (0-100), Change From Baseline: P-Value 0.003; for VAS Dryness (0-100), Change From Baseline: vehicle +2. The procedure: The objective of the study is to evaluate the efficacy of reproxalap, as assessed by tear reactive aldehyde species (RASP) levels, after single and multiple doses in subjects with dry eye disease. The efficacy of reproxalap will also be assessed by tear RASP levels, conjunctival redness, Schirmer's Test, and dry eye symptoms after dosing immediately prior to and during exposure to the Controlled Adverse Environment (CAE®) over 2 hours, in subjects with dry eye disease. CAE® chambers allow standardization of variables, such as temperature, humidity, airflow, and visual tasking (see Calonge et al., Current Eye Res., 2018, 43(4):445-450; see also Ousler, III et al., Ophthalmol Ther., 2017, 6(2): 263-276) Dosage/Dose Regimen. A Reproxalap solution (0.25% w/v or 0.1% w/v) is administered topically to both eyes. The control is a Vehicle Control Solution. The test article is administered QID on Day 1 (Visit 2). On Day 2 (Visit 3), test article is administered once 2 or 5 minutes immediately prior to the CAE®, once 45 minutes after initiation of the CAE®, and once at CAE® exit. The primary endpoint is the change in levels of reactive aldehyde species (RASP) in tears. Secondary endpoints include the following: • Visual analog scale eye dryness score assessed over 90 minutes in CAE®. • Ora Calibra Ocular Discomfort Scale assessed over 90 minutes in CAE®. • Conjunctival redness assessed at over 90 minutes via digital photography in the CAE® (Key Secondary Sign Endpoint). • Schirmer's Test assessed 10 minutes after dosing. • Post-CAE® RASP change from baseline. General Statistical Methods and Types of Analyses. The primary endpoint and secondary endpoints of Schirmer's Test and post-CAE® RASP is assessed via analysis of covariance (ANCOVA), with baseline score as a covariate. Initial Cohort of the trial will enroll twenty subject who meet the inclusion criteria. The Initial Cohort phase will be limited to Visit 1 (Screening), Visit 2 (Day 1), and Visit 3 (Day 2). At Day 1, evaluations include Dry Eye symptoms, Schirmer's test, and tear RASP levels. At Day 2 (Chamber test), evaluations include Dry Eye symptoms, Ocular Redness, and tear RASP levels. • Day 1 Schirmer's Test results is based on improvement after a single dose; all other Day 1 assessments were performed over 24 hours of QID dosing.

Data set [2] deals with subjects with dry eye disease. As to the kind of experiment: CAE clinical study, initial cohort, Day 2 dry eye chamber. The procedure: The objective of the study is to evaluate the efficacy of reproxalap, as assessed by tear reactive aldehyde species (RASP) levels, after single and multiple doses in subjects with dry eye disease. The efficacy of reproxalap will also be assessed by tear RASP levels, conjunctival redness, Schirmer's Test, and dry eye symptoms after dosing immediately prior to and during exposure to the Controlled Adverse Environment (CAE®) over 2 hours, in subjects with dry eye disease. CAE® chambers allow standardization of variables, such as temperature, humidity, airflow, and visual tasking (see Calonge et al., Current Eye Res., 2018, 43(4):445-450; see also Ousler, III et al., Ophthalmol Ther., 2017, 6(2): 263-276) Dosage/Dose Regimen. A Reproxalap solution (0.25% w/v or 0.1% w/v) is administered topically to both eyes. The control is a Vehicle Control Solution. The test article is administered QID on Day 1 (Visit 2). On Day 2 (Visit 3), test article is administered once 2 or 5 minutes immediately prior to the CAE®, once 45 minutes after initiation of the CAE®, and once at CAE® exit. The primary endpoint is the change in levels of reactive aldehyde species (RASP) in tears. Secondary endpoints include the following: • Visual analog scale eye dryness score assessed over 90 minutes in CAE®. • Ora Calibra Ocular Discomfort Scale assessed over 90 minutes in CAE®. • Conjunctival redness assessed at over 90 minutes via digital photography in the CAE® (Key Secondary Sign Endpoint). • Schirmer's Test assessed 10 minutes after dosing. • Post-CAE® RASP change from baseline. Secondary endpoints of conjunctival redness and symptoms in the CAE® is assessed via mixed effect model for repeated measures (MMRM), with baseline score as a covariate, and time and test article group as factors. In one of the CAE® studies, one dose is given 2 min prior to chamber entry. Another dose is administered 45 min after chamber entry. In some instances, subjects receive one day prior to chamber entry. Thus, some subjects receive: one dose on day prior to, one dose immediately before, and one dose 45 min after entry into a 90 min dry eye chamber with minimal humidity, high airflow, and forced visual tasking. In some instances, the subjects are given a dose at exit of the CAE®.

For data set [3], the system named is malondialdehyde (MDA) adducts in tears. As to the kind of experiment: MDA adduct competitive ELISA of tears, Phase 2a clinical study. Particulars: 28 days / 4-week treatment, all treatment groups pooled. From the text: The study was to assess levels of malondialdehyde (MDA) adducts in tears collected from subjects with dry eye disease enrolled in a Phase 2a, randomized, double-masked, clinical study to assess the safety, tolerability, and pharmacodynamic activity of ADX-102 ophthalmic solution in subjects with dry eye diseases, also referred to herein as dry eye syndrome (DES).
Tears were collected during Visit 1, prior to treatment, and during Visit 3, following four weeks of treatment. Treatment groups consisted of ADX-102 Ophthalmic Solution (0.5%), ADX-102 Ophthalmic Solution (0.1%), and ADX-102 Ophthalmic Lipid Solution (0.5%). […]
The assay is a competitive ELISA. […] The plate is read in a microplate reader at 450 nm. The assay OD reading decreases with increasing MDA adducts in the samples, as the adsorbed MDA competes for binding to the MDA antibody with MDA adducts in the test sample. […]
DES Study Samples. Based on the results of the pilot assay, a 1:60 dilution was determined to maximize the likelihood of the OD values falling within the linear portion of the standard curve, and thus provide the most accurate results. All tear samples from subjects (0.5% ADX-102 Ophthalmic Solution) and (0.1% ADX-102 Ophthalmic Solution) were analyzed, but results from some tear samples were excluded from the data analysis due to contamination with ocular staining dye in the Visit 3 samples. […]
(An ELISA detects its analyte on a solid surface through an enzyme-linked reagent.)

Data set [4] is described as follows: Safety of topical ocular reproxalap across clinical trials. The procedure: • Day 1 Schirmer's Test results is based on improvement after a single dose; all other Day 1 assessments were performed over 24 hours of QID dosing.
The mark [5] stands for this setting: Day 1, over 24 hours of QID dosing.
The mark [6] stands for this setting: Day 1, over 24 hours of QID dosing, listed as reproxalap.

With `CC(C)(O)c1nc2ccc(Cl)cc2cc1N` [Reproxalap, reproxalap], the “Schirmer's Test, Change From Baseline” value in data set [1] was “+3.4 mm”; in data set [1] (listed as reproxalap), “directionally in favor of reproxalap over vehicle”. Also, the figures for the “OD4S: Dryness (0-5), Change From Baseline” value in data set [1] (setting [5]) and in data set [1] (setting [6]) were −1.2 and “statistically superior to vehicle”, respectively. The results for the “OD4S: Grittiness (0-5), Change From Baseline” value in data set [1] (setting [5]) and in data set [1] (setting [6]) were −1.1 and “statistically superior to vehicle”, respectively. Moreover, the “OD4S: Discomfort (0-5), Change From Baseline” value in data set [1] (Day 1, over 24 hours of QID dosing, vehicle +0.4) is reported as −0.7; in data set [1] (Day 1, over 24 hours of QID dosing, vehicle +0.4, listed as reproxalap) it was “statistically superior to vehicle”. The “Ocular Discomfort Scale (0-4), Change From Baseline” value in data set [1] (Day 1, over 24 hours of QID dosing, vehicle +0.4, P-Value 0.07) is −0.7. In data set [1] (Day 1, over 24 hours of QID dosing, vehicle +0.4, P-Value 0.23), the “OD4S: Sting (0-5), Change From Baseline” value is on record as −0.1. Further, the “OD4S: Burn (0-5), Change From Baseline” value in data set [1] (Day 1, over 24 hours of QID dosing, vehicle +0.8, P-Value 0.07) is given as −0.1. In addition, the “VAS Dryness (0-100), Change From Baseline” value was −26 in data set [1] (setting [5]) and “statistically superior to vehicle” in data set [1] (setting [6]). In data set [2] (Day 2, dry eye chamber, p=0.03), the “ocular redness versus vehicle” value is “statistically significant improvement over vehicle”. Moreover, the “ocular discomfort score versus vehicle” value in data set [2] (Day 2, over all time points in aggregate in the dry eye chamber, p<0.0001) is on record as “statistically superior to vehicle”. Besides, the “visual analog scale (VAS) ocular dryness versus vehicle” value in data set [2] (Day 2, over all time points in aggregate in the dry eye chamber, p=0.001) is “statistically superior to vehicle”. In addition, the “time to improvement in ocular symptoms and redness following dosing” value in data set [2] (dry eye chamber) was “within minutes”. In addition, in data set [3], the “tear MDA adduct level after treatment relative to baseline, pooled groups” value is “statistically lower”. In data set [4] (human, in vivo), the “most commonly reported adverse event in clinical trials” value was “mild instillation site irritation”. Further, the “safety in clinical trials” value in data set [4] (studied in over 1,100 patients) is given as “no observed safety concerns”.

The record behind these values is patent US20220211691A1, “TREATMENT OF DRY EYE DISEASE” (Aldeyra Therapeutics, Inc., priority 2021, published 2022).
